In patent US10676468B2, “N-(3-heteroarylaryl)-4-arylarylcarboxamides and analogs as hedgehog pathway inhibitors and use thereof” (IMPACT Therapeutics, Inc., priority 2012, dated 2020):

Legend:
Format in all cases: cell-based, mouse
[1] = system: Hedgehog Signaling Pathway; assay: SHH-induced differentiation of C3H10T1/2 cells into osteoblastic cells, intracellular alkaline phosphatase activity; settings: 10 nM SHH-N, 5 days, alkaline phosphatase activity (OD405), read-out: IC50 values of compounds that inhibit Hh pathway
Procedure: (§1) The Application of SHH to Induce Pluripotent Mesenchymal Mouse Embryonic Cell C3H10T1/2 to Differentiate into Osteoblastic Cells for the Determination of the Inhibitory Activity of N-(3-(1H-benzo[d]imidazol-2-yl)-4-chlorophenyl)-2-methyl-4-((2S,6R)-2,6-dimethylmorpholino)benzamide and Analogs on Hedgehog Signaling Pathway
The C3H10T1/2 cells were grown in DMEM medium supplemented with 10% fetal bovine serum (FBS, Hyclone) at 37° C. with 5% CO2. 10000 cells were sown to each well of a 96-well microplate a day before the experiment and grown overnight. […] The reference compound and testing compounds were serially diluted 1 to 3 and 1 to 10 in DMSO to seven concentrations with the eighth concentration being DMSO. A 10-fold dilution was prepared by mixing 10 μL of the DMSO dilutions with 90 μL of fresh growing medium. Pre-sown cells were taken out from incubator and the medium was removed. To each well, 180 μL of inducing medium containing 10 nM of SHH-N was added and followed immediately with 20 μL of 10× testing or reference compound dilutions. The testing compound concentrations are between 10 μM and 10 nM. The cells were then returned to CO2 incubator to grow additional 5 days at 37° C.
(§2) After incubating for 5 days, the cells were taken out and intracellular alkaline phosphatase activity was tested. The alkaline phosphatase activity was measured as follows:
3) Preparation of Substrate Solution:
(§3) Solution A: A 0.5 mM MgCl2 (Sigma Prod. No. M-0250) solution was prepared.
(§4) After the pH value was adjusted to 9.8 with 5 M HCl at 37° C., the total volume was adjusted to 100 mL.
(§5) After it is completely dissolved the total volume was adjusted to 10 mL with the final concentration being 1 mM.
Substrate reaction medium: to 10 mL of solution B, 250 μL of solution A and 200 μL of solution C were added, and mixed well.
4) The Measurement of Intracellular Alkaline Phosphatase Activity:
(§6) After taking out the cells from the incubator, the cell culture medium was removed and cells were washed twice with PBS. 20 μL of lysis solution (0.2% Triton solution) was added to each well. After being shaken for 30 min at room temperature, each well of cells received 80 μL of substrate reaction medium. The microplate was placed immediately into a VariSkan Flashplate reader and absorbance at OD405 was read as background reading. The plate was replaced back to cell culture incubator at 37° C. for additional 30 min and the absorbance was read again using VariSkan Flash plate reader at OD405.
(§7) The data were analyzed by subtracting the background reading from the reading at 30 min, and the obtained numbers were plotted and analyzed with Prism 5 software (GraphPad). The phosphatase activity (calculated OD405) was plotted against the log concentration of testing compound, and the obtained plot was fitted with non-linear curve fitting equation to calculate IC50 values. The curve fitting equation is Y=Bottom+(Top−Bottom)/(1+10^(X−Log IC50)). X is the logarithm of concentration. Y is the measure of alkaline phosphatase activity (OD405).
(§8) The calculated IC50 value is a measurement of the inhibitory activity of compound to Hh pathway.

[2] = system: Hedgehog Signaling Pathway; assay: SAG-induced differentiation of C3H10T1/2 cells into osteoblastic cells, intracellular alkaline phosphatase activity; settings: 1 μM SAG, 5 days, alkaline phosphatase activity (OD405), read-out: IC50 values of compounds that inhibit Hh pathway
Source text: as §1, with “SAG” for “SHH”, “C3H/10T1/2” for “C3H10T1/2”
The intracellular alkaline phosphatase activity is a reliable indication of the differentiation process. Therefore this enzymatic activity can be used to monitor the activity of hedgehog pathway inhibitors.
The C3H10T1/2 cells were grown in DMEM medium supplemented with 10% fetal bovine serum (FBS, Hyclone) at 37° C. with 5% CO2. 10000 cells were sown to each well of a 96-well microplate a day before the experiment and grown overnight. At the day of experiment, the inducing medium and inhibitor solutions were prepared as follows: the reference compound and testing compounds were serially diluted 1 to 3 and 1 to 10 in DMSO to seven concentrations with the eighth concentration being DMSO. A 10-fold dilution was prepared by mixing 10 μL of the DMSO dilution with 90 μL of fresh growing medium. […] Pre-sown cells were taken out from incubator and the medium was removed. To each well, 180 μL inducing medium was added and followed immediately with 20 μL of testing or reference compound dilutions. The testing compound concentrations are between 10 μM and 1 nM. The cells were then return to CO2 incubator to grow additional 5 days at 37° C.
as §2
1) Preparation of Substrate Solution:
as §3, §4, §5
Substrate reaction medium: To 10 mL of solution B, 250 μL of solution A and 200 μL of solution C were added, and mixed well.
2) the Measurement of Intracellular Alkaline Phosphatase Activity:
as §6
as §7, with “Y=Bottom+(Top−Bottom)/(1+10^((X−Log IC50))).” for “Y=Bottom+(Top−Bottom)/(1+10^(X−Log IC50)).”
as §8

[3] = system: Hedgehog Signaling Pathway; assay: Gli-Luc reporter gene cell assay in C3H10T1/2/Gli-Luc cells stimulated with Shh; settings: Mus musculus, C3H 10T1/2, 24 h, 30 nM Shh, luciferase activity (RLU), read-out: IC50 values of compounds that inhibit Hh pathway
Source text: The Application of Reporter Gene Cell Assay for the Determination of the Inhibitory Activity of N-(3-(1H-benzo[d]imidazol-2-yl)-4-chlorophenyl)-2-methyl-4-((2S,6R)-2,6-dimethylmorpholino) benzamide and Analogs on Hedgehog Signaling Pathway
The binding of Sonic hedgehog (Shh) to its receptor Patched 1 initiates numerous intracellular signal transmission, and leads to the nuclear translocation of Gli and the elevated transcription of Gli target genes. When C3H10T1/2 cells are stably transfected with the Gli-Luc plasmids containing the luciferase gene under the control of Gli response element and stimulated with Shh, the expression of luciferase is elevated. Luciferase activity is indicative of the hedgehog signaling pathway activity. Therefore, the inhibitory activity of compounds on hedgehog signaling pathway can be measured using the luciferase activity when the transfected cells are stimulated with Shh.
The day before experiment, C3H10T1/2/Gli-Luc cells in log phase of growth were seeded into 96 well plate at a density of 20000 cells per well. The cells were maintained in DMEM (Hyclone) supplemented with 10% FBS (Hyclone) and incubated at 37° C. with 5% CO2 overnight. The compounds to be examined were diluted into 7 different concentrations by series of dilutions (⅓ and 1/10), and the eighth point of concentration is the DMSO control. Those solutions were diluted 100-fold in the fresh growth medium. The cells were taken out of the incubator and the medium of cultured cells were removed. Then, each well was added in an orderly manner with 80 μL of fresh growth medium, 20 μL of medium pre-dilution of positive compound and compounds to be tested, as well as 100 μL of growth medium containing 30 nM of Shh. The cells are returned to the incubator, and incubated for 24 hours.
Measurement of luciferase activity: After taking the 96 well plate out of the incubator, the supernatants were discarded and the cells were washed twice with PBS. Thereafter, each well was dispensed with 20 μL of lysis buffer (Promega E1531), and the plate was shaken for 30 min at room temperature. Following transferring 5 μL of cell lysate into 384 well plate (Greiner 781074), adding 25 μL of luciferase reaction buffer (Promega E1501) into each well and mixing the plate, the relative light unit (RLU) was immediately captured by VarioSkan Flash.
The data were analyzed with Prism 5 software (GraphPad). The relative light unit (RLU) was plotted against the log concentration of testing compound, and the obtained plot was fitted with non-linear curve fitting equation to calculate IC50 values. The curve fitting equation is Y (RLU)=Bottom+(Top−Bottom)/(1+10^((X−Log IC50))). X is the logarithm of concentration. Y is the measure of relative light unit (RLU).
as §8

[4] = Mus musculus, C3H 10T1/2, 120 h

IC50 [1, 4] [nM]	IC50 [2, 4] [nM]	IC50 [3] [nM]	Compound	IC50 [1] [nM]	IC50 [2] [nM]
409	> 10000	–	Cc1cc(-c2ccc(C(F)(F)F)cc2)ccc1C(=O)Nc1cc(-c2nc3ccccc3[nH]2)cc(C(F)(F)F)c1 [Example 62, N-(3-(1H-benzo[d]imidazol-2-yl)-5-(trifluoromethyl)phenyl)-3-methyl-4′-(trifluoromethyl)biphenyl-4-carboxamide]	–	–
39	1340	–	Cc1cc(-c2ccc(C(F)(F)F)cc2)ccc1C(=O)Nc1cc(Cl)cc(-c2nc3ccccc3[nH]2)c1 [Example 63, N-(3-(1H-benzo[d]imidazol-2-yl)-5-chlorophenyl)-3-methyl-4′-(trifluoromethyl)biphenyl-4-carboxamide]	–	–
1130	636	–	Cc1cc(-c2ccc(C(F)(F)F)cc2)ccc1C(=O)Nc1cccc(-c2nc3ccccc3[nH]2)c1Cl [Example 64, N-(3-(1H-benzo[d]imidazol-2-yl)-2-chlorophenyl)-3-methyl-4′-(trifluoromethyl)biphenyl-4-carboxamide]	–	–
501	522	–	Cc1c(NC(=O)c2ccc(N3C[C@@H](C)O[C@@H](C)C3)nc2)cccc1-c1nc2ccccc2[nH]1 [Example 65, N-(3-(1H-benzo[d]imidazol-2-yl)-2-methylphenyl)-6-((2S,6R)-2,6-dimethylmorpholino)nicotinamide]	–	–
467	> 10000	–	Cc1cc(-c2ccc(C(F)(F)F)cc2)ccc1C(=O)Nc1cccc(-c2nc3ccccc3[nH]2)n1 [Example 72, N-(6-(1H-benzo[d]imidazol-2-yl)pyridin-2-yl)-3-methyl-4′-(trifluoromethyl)biphenyl-4-carboxamide]	–	–
134	163	–	Cc1cc(-c2ccc(C(F)(F)F)cc2)ccc1C(=O)Nc1cccc(-c2nc3ccccn3n2)c1 [Example 73, N-(3-([1,2,4]triazolo[1,5-a]pyridin-2-yl)phenyl)-3-methyl-4′-(trifluoromethyl)biphenyl-4-carboxamide]	–	–
4.5	191	–	Cc1cc(-c2ccc(C(F)(F)F)cc2)ccc1C(=O)Nc1ccc(F)c(-c2nc3ccccc3[nH]2)c1 [Example 74, N-(3-(1H-benzo[d]imidazol-2-yl)-4-fluorophenyl)-3-methyl-4′-(trifluoromethyl)biphenyl-4-carboxamide]	–	–
2.9	17	–	Cc1cc(-c2ccc(C(F)(F)F)cc2)ccc1C(=O)Nc1ccc(Br)c(-c2nc3ccccc3[nH]2)c1 [Example 75, N-(3-(1H-benzo[d]imidazol-2-yl)-4-bromophenyl)-3-methyl-4′-(trifluoromethyl)biphenyl-4-carboxamide]	–	–
> 10000	> 10000	–	COc1ccc(NC(=O)c2ccc(-c3ccc(C(F)(F)F)cc3)cc2C)cc1-c1nc2ccccc2[nH]1 [Example 76, N-(3-(1H-benzo[d]imidazol-2-yl)-4-methoxyphenyl)-3-methyl-4′-(trifluoromethyl)biphenyl-4-carboxamide]	–	–
45	312	–	Cc1cc(N2CCN(C)CC2)ccc1C(=O)Nc1ccc(Cl)c(-c2nc3ccccc3[nH]2)c1 [Example 92, N-(3-(1H-benzo[d]imidazol-2-yl)-4-chlorophenyl)-2-methyl-4-(4-methylpiperazin-1-yl)benzamide]	–	–
3.9	47	–	Cc1ccc(NC(=O)c2ccc(N3C[C@@H](C)N(C)[C@@H](C)C3)cc2Cl)cc1-c1nc2ccccc2[nH]1 [Example 102, N-(3-(1H-benzo[d]imidazol-2-yl)-4-methylphenyl)-2-chloro-4-((3S,5R)-3,4,5-trimethylpiperazin-1-yl)benzamide]	–	–
76	698	–	Cc1cc(N2CCNCC2)ccc1C(=O)Nc1ccc(Cl)c(-c2nc3ccccc3[nH]2)c1 [Example 108, N-(3-(1H-benzo[d]imidazol-2-yl)-4-chlorophenyl)-2-methyl-4-(piperazin-1-yl)benzamide]	–	–
–	–	0.28	C[C@@H]1CN(c2cc(Cl)c(C(=O)Nc3ccc(Cl)c(-c4ncc(-c5ccsc5)[nH]4)c3)cc2F)C[C@H](C)N1C [Example 142, N-(3-(5-(thiophen-3-yl)-1H-imidazol-2-yl)-4-chlorophenyl)-2-chloro-5-fluoro-4-((3S,5R)-3,4,5-trimethylpiperazin-1-yl)benzamide]	–	–
–	–	–	N-(3-(imidazo[1,2-a]pyridin-2-yl)-4-chlorophenyl)-3-methyl-4′-(trifluoromethyl)biphenyl-4-carboxamide [Example 67]	68	> 10000
